# Data: patent US11293927B2, “Screening methods for PARP modulators” (Ribon Therapeutics, Inc., priority 2018, dated 2022)
# Tests used:
# Assay type in all cases: binding
# PARP15 = target: T1, PARP15 (Homo sapiens, UniProt Q460N3); experiment: In vitro TR-FRET probe displacement assay (Probe C), PARP15; conditions: TR-FRET displacement of Probe C, PARP15 residues 481-678
# T1 construct: made in house; host or cells: Sf9
# T1 sequence (Q460N3 481-678): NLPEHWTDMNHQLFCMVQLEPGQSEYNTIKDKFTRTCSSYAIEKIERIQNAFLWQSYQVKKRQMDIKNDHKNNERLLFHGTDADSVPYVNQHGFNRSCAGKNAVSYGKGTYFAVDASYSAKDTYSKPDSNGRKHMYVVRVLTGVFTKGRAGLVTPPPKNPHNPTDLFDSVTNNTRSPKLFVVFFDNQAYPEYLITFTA
# Protocol: A portion of PARP15 (residues 481 to 678 of NP_689828.1 (SEQ ID NO: 5), GenBank Accession No. NM_152615) was overexpressed in Sf9 cells. An N-terminal fusion tag, […] (SEQ ID NO: 10), was used to purify the protein from cell lysates. The fusion tag was left on the protein for use in the probe displacement assay.
# (§1) Displacement of a Probe C binding to monoPARP active sites was measured using a time-resolved fluorescence resonance energy transfer (TR-FRET) assay. 20 nL of a dose response curve of each test compound was spotted in black 384-well polystyrene proxiplates (Perkin Elmer) using a Mosquito (TTP Labtech). Reactions were performed in a 8 μL volume by adding 6 μL of the monoPARP and Probe C in assay buffer (20 mM HEPES pH=8, 100 mM NaCl, 0.1% bovine serum albumin, 2 mM DTT and 0.002% Tween20), incubating with test compound at 25° C. for 30 min, then adding 2 μL of ULight-streptavidin and LANCE Eu-W 1024 Anti-6×His (Perkin Elmer). Binding reactions were equilibrated at 25° C. for an additional 30 min, then read on an Envision platereader equipped with a LANCE/DELFIA top mirror (Perkin Elmer) using excitation of 320 nm and emission of 615 nm and […] with a 90 μs delay. The ratio of the 665/615 nm emission were calculated for each well to determine the amount of complex of monoPARP and Probe C in each well. […]
# PARP10 = target: T2, PARP10 (Homo sapiens, UniProt Q53GL7); experiment: In vitro TR-FRET probe displacement assay (Probe C), PARP10; design: made in house; host or cells: E. coli; conditions: TR-FRET displacement of Probe C, PARP10 residues 808-1025
# T2 sequence (Q53GL7 808-1025): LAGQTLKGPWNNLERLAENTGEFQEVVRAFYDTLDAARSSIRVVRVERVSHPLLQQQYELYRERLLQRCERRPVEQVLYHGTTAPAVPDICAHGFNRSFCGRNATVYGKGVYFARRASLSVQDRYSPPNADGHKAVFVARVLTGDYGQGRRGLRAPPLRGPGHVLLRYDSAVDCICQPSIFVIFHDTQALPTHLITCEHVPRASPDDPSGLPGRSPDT
# Protocol: A portion of PARP10 (residues 808 to 1025 of NP_116178.2 (SEQ ID NO: 2), GenBank Accession No. NM_032789.4) was overexpressed in E. coli cells. An N-terminal fusion tag, MAHHHHHHENLYFQSM (SEQ ID NO: 8), was used to purify the protein from cell lysates. The fusion tag was left on the protein for use in the probe displacement assay.
# as §1, with “performed in an 8 μL” for “performed in a 8 μL”, “μL of ULight-anti 6×His and LANCE” for “μL of ULight-streptavidin and LANCE”, “Eu-W 1024 labeled streptavidin (Perkin Elmer).” for “Eu-W 1024 Anti-6×His (Perkin Elmer).”
# PARP14 = target: T3, PARP14 (Homo sapiens, UniProt Q460N5); experiment: In vitro TR-FRET probe displacement assay (Probe C), PARP14; design: made in house; host or cells: E. coli; conditions: TR-FRET displacement of Probe C, PARP14 residues 1611-1801
# T3 sequence (Q460N5 1611-1801): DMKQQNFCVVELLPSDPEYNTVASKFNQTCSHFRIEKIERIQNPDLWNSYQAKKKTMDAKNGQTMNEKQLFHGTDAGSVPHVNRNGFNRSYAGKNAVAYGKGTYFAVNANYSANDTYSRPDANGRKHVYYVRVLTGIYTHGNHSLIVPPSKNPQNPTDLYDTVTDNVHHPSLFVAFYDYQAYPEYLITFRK
# Protocol: A portion of PARP14 (residues 1611 to 1801 of NP_060024.2 (SEQ ID NO: 4), GenBank Accession No. NM_017554) was overexpressed in E. coli cells. An N-terminal fusion tag, […] (SEQ ID NO: 9), was used to purify the protein from cell lysates. The fusion tag was left on the protein for use in the probe displacement assay.
# as §1, with “performed in an 8 μL” for “performed in a 8 μL”, “μL of ULight-anti 6×His and LANCE” for “μL of ULight-streptavidin and LANCE”, “Eu-W 1024 labeled streptavidin (Perkin Elmer).” for “Eu-W 1024 Anti-6×His (Perkin Elmer).”
smiles,measurement,setting,value
"O=c1[nH]ncc(N2Cc3ccc(OC4CCNCC4)cc3C2)c1C(F)(F)F [Compound A, 5-[5-(Piperidin-4-yloxy)-2,3-dihydro-1H-isoindol-2-yl]-4-(trifluoromethyl)-2,3-dihydropyridazin-3-one]",IC50,PARP15,60 nM
same,IC50,PARP10,80 nM
same,IC50,PARP14,50 nM
